Read-outs that look alike come from different tables or passages of the source.
What was measured:
Bunya = assay: Potency by virus family (Fig. 2), Bunya; format: cell-based; conditions: read-out: potency class (EC50)
Rhabdo = assay: Potency by virus family (Fig. 2), Rhabdo; format: cell-based; conditions: read-out: potency class (EC50)
MARV Rec. Bat371-Gluc [1] = system: MARV Rec. Bat371-Gluc
NiV B-2004 [2] = system: NiV B-2004
Filo (filoviruses) = conditions: cited from earlier work
HeV 1996 (Hendra virus) = assay: in vitro; conditions: human
[3] = system: KFDV P9605 (Kyasanur Forest Disease virus); assay: in vitro; conditions: human
MARV Rec. Bat371-Gluc [4] = assay: organism not typed; conditions: Huh-7
[5] = Cell viability assay (CellTiter-Glo 2.0), A549; conditions: human, uninfected A549 cells
[6] = Cell viability assay (CellTiter-Glo 2.0), HMVEC-L; conditions: human
MV, hPIV3, hMPV, and RSV = assay: organism not typed; format: cell-based; conditions: read-out: EC50 values (range over viruses)
NiV B-2004 [7] = assay: microbe, parasite or virus in culture; conditions: Henipavirus nipahense, HeLa

Structure (SMILES) | EC50 (Bunya) | EC50 (Rhabdo) | EC50 (MARV Rec. Bat371-Gluc [1]) | EC50 (NiV B-2004 [2]) | activity in cell-based antiviral assays (Filo (filoviruses)) | selectivity ratio (HeV 1996 (Hendra virus)) | selectivity ratio [3] | EC50 (MARV Rec. Bat371-Gluc [4]) | EC90 (MARV Rec. Bat371-Gluc [4]) | CC50 at 72 h [5] | CC50 at 72 h [6] | EC50 (MV, hPIV3, hMPV, and RSV) | EC50 (EBOV Rec. Mayinga-GFP) | EC90 (NiV B-2004 [7])
CCC(CC)COC(=O)[C@H](C)N[P@](=O)(OC[C@H]1O[C@@](C#N)(c2ccc3c(N)ncnn23)[C@H](O)[C@@H]1O)Oc1ccccc1 [GS-5734] | > 4000 nM | > 4000 nM | 19 nM | 32 nM | shown activity | 150 | 5.6 | 19.3 nM | 52 nM | > 10000 nM | 8500 nM |  |  | 
N#C[C@@]1(c2ccc3c(N)ncnn23)O[C@H](CO)[C@@H](O)[C@H]1O [Nuc] |  |  |  |  |  |  |  |  |  |  |  | 500 to 2000 nM | 1600 nM | 2200 nM

Reference: PMC5338263, “GS-5734 and its parent nucleoside analog inhibit Filo-, Pneumo-, and Paramyxoviruses” (Scientific Reports, 2017)
